# Entries after “also recorded” stand apart in the source; their conditions may differ. Where two headings read alike, the source gives them in different places.
# Tests used:
# [1] = system: intracerebral tau aggregate accumulation; assay: Intracerebral tau aggregate accumulation in rTg4510 mice, tau PET with [18F] PM-PBB3, SUVR (Test 5); format: in vivo, mouse; settings: for SUVR(cerebellum ratio) cerebral neocortex / SUVR(cerebellum ratio) hippocampus: 4.5 mg/g-food, with ABT 1 mg/g-food
# From the text: (§1) Test 5: Evaluation of Intracerebral Tau Aggregate Accumulation and Cerebral Atrophy Using rTg4510 Mice
# (§2) This test is a test to evaluate the effects of the compounds on intracerebral tau aggregate accumulation and cerebral atrophy. The rTg4510 mice overexpress the human-type FTDP-17 mutant tau in the forebrain, and month-age-dependent intracerebral tau aggregate accumulation and cerebral atrophy are observed. The rTg4510 mice used herein were produced by mating Tg (tauP301L) 4510 mice (Stock No. 015815) and CaMKII-tTA mice (Stock No. 007004) purchased from The Jackson Laboratory and breeding them.
# (§3) The test compound was administered as a mixed diet to rTg4510 mice from the age of 4 months, and PET scan and MRI were performed at the ages of 4, 6 and 8 months to quantitatively evaluate the amount of the intracerebral tau aggregate accumulated and cerebral atrophy. The PET scan was performed using MicroPET Focus 220 of Siemens Medical Solutions (0.851 mm thick (intercenter) 95 slices, 19.0 cm axial field of view (FOV), and 7.6 cm intra-section FOV). The administration of radioactive compound [^18F] PM-PBB3 (precursor obtained from Aprinoia) and the PET scan were performed in dimly lit after the mice was treated with 1.5% isoflurane anesthesia to avoid […] of the radioactive compound. The emission scan was performed for 60 minutes immediately after the intravenous administration of [^18F] PM-PBB3 (1 mCi) (3D list mode, energy window: 350-750 keV). Then, the list mode data sorted into 3D synograms were converted into 2D synograms by Fourier-rebinding (frames: 4×1, 8×2 and 8×5 minutes). The dynamic image for 60 minutes after the administration of [^18F] PM-PBB3 was reconstructed by a filter-corrected back projection with a 0.5 mm Hanning filter. Regions of interest (ROI) were set in multiple brain regions using PMOD image analysis software (PMOD Technology) with reference to the MRI templates and the PET reconstructed images. Tau aggregate accumulation was evaluated by calculating SUVR (Standardized uptake value ratio) with the cerebellum as a reference region, based on the added average of dynamic images from 40 minutes to 60 minutes.
# [2] = system: phosphorylated tau oligomer; assay: Evaluation of phosphorylated tau oligomers in brain of APP-Tg mice, Western blotting (Test 4); format: in vivo, mouse; settings: for Reducing effect of phosphorylated tau oligomer: 7-10 days, with ABT 1 mg/g-food; for reducing effect of tau oligomer: with food for 7-10 days, ABT 1 mg/g-food depending on the compound, brain, anti-oligomerized tau antibody TOMA-1
# Protocol: Test 4: Evaluation of Phosphorylated Tau Oligomers Using APP-Tg Mice
# This test is a test to quantify the oligomer of phosphorylated tau in the brain to evaluate the action of a compound. […] The APP-Tg mice used herein were prepared by the method described in Test 3.
# The test compound administered with food to APP-Tg mice for 7-10 days. At this time, in order to increase the blood concentration of the test compound, ABT was used in combination with a mixed diet of 1 mg/g-food depending on the compound. After the administration, the brain was collected, and the protein is extracted from the collected brain using TBS (Tris Buffered Saline) or sarcosyl, and then SDS-PAGE (sodium dodecyl sulfate-polyacrylamide gel electrophoresis) of the soluble or insoluble fraction was performed. After that, Western blotting was performed using an anti-oligomerized tau antibody (Anti-Tau, oligomeric, clone TOMA-1), and the effect of the test compound was evaluated by quantifying the band amount of the phosphorylated tau oligomer.
# The reducing effect of phosphorylated tau oligomer was calculated by the following formula, and from the calculated values, the results were defined as follows: 0-25%: +, 25-50%: ++, 50-75%: +++, and 75-100%: ++++. The significant difference from the vehicle-administered group was determined using the Student t-test. For the band amount, the value corrected by the β-actin band amount was used.
# Reducing effect of phosphorylated tau oligomer={(band amount of oligomerized tau in vehicle-administered group−band amount of oligomerized tau in test compound-administered group)/band amount of oligomerized tau in vehicle-administered group}×100
# rTg4510 mice = assay: Cerebral atrophy in rTg4510 mice, MRI volume of brain regions (Test 5); format: in vivo, mouse; settings: for lateral ventricular volume (mm^3): 4.5 mg/g-food, with ABT 1 mg/g-food
# From the text: as §1, §2, §3
# The evaluation of cerebral atrophy was performed with horizontal superconducting magnet type MRI (7T, inner diameter 400 mm, self-shielding type, zero boil-off type). The imaging was performed under isoflurane anesthesia while maintaining the rectal temperature at 36.5±0.5° C. After Tripilot acquisition, the brain images were acquired by TurboRARE T2 emphasis sequence (TR: 4200 ms, TE: 36 ms, Fat-Sup: on, NA: 4, RARE factor: 8, scan time: 14 min) (FOV read: 25.6 mm, FOV P1: 14.5 mm, Slice thickness: 0.5 mm, number of slices: 28). The ROI of each brain region was set in each of the acquired slices, and the volume of the brain region was calculated by summing the ROI areas of all the slices to evaluate the effect of the test compound.
# human Nav1.1 = molecular target: T1, human Nav1.1 (Homo sapiens, UniProt P35498); assay: Amplification of Nav1.1-derived voltage-gated sodium current (Nav1.1 current), automated patch clamp (Test 1); format: cell-based; settings: read-out: Nav1.1 current amplification rate (%)
# T1 construct: host or cells: HEK293
# Outline: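 HEK293 cells stably expressing human Nav1.1, restricted to cells with >500 pA current, were recorded by automated voltage-clamp patch clamp with a ramp voltage stimulus. Compounds were applied in HEPES-buffered extracellular solution with 1% DMSO. Amplification (%) = 100×(peak or AUC after/before compound)−100.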
# APP-Tg mouse = assay: Evaluation of the cognitive function by novel object recognition test (NORT) in APP-Tg mice (Test 3); format: in vivo; set-up: key to Discrimination index: (novel − known search time)/(novel + known search time); settings: for improvement of cognitive function (NORT), summary of the above results / improvement of cognitive function (NORT): APP-Tg mice; for improvement of cognitive function (NORT), summary of the above results: alone, with Elacridar or with ABT depending on the compound; for improvement of cognitive function (NORT): test compound and ABT (1 mg/g-food) administered with food for 10 days; for Discrimination index: APP-Tg mouse, with ABT 1 mg/g-food
# Protocol: Test 3: Evaluation of the Cognitive Function by Novel Object Recognition Test (Hereinafter, Also Referred to as “NORT”)
# The present test is for evaluating the improvement of cognitive function with the test compounds. When an APP-Tg mouse which is an AD (Alzheimer's disease) model mouse is evaluated by NORT, the memory for a familiar object decreases depending on the time interval between the first trial run (training) and the second trial run (test). For example, if the first trial run is done and 3 hours later the second one is done, there is no difference in the searching times between novel object and known object for the APP-Tg mouse, compared with a healthy mouse. Thus, the APP-Tg mouse suffers from significant amnesia.
# The APP-Tg mouse used herein was prepared by constructing an expression cassette linked to human APP751 isoform to which Swedish (K670N/M671L) and Indiana (V717F) mutation were introduced at downstream of mouse Thy-1 promoter, then injecting the expression cassette into a mouse fertilized egg, and transplanting it to a host mouse. The prepared mouse presents with intracerebral AB accumulation and cognitive dysfunction from early on, and thus the mouse can be used for the evaluation of cognitive function. APP-Tg mouse has been also reported in Non-patent literature 6.
# To the prepared APP-Tg mouse, the test compound was administered, and then the first trial run was done for the mouse 30 minutes after the intraperitoneal administration or after 10 days of mixed diet administration. The second trial run was done 3 hours after the first trial run, and the searching times between novel object and known object in the second trial were evaluated. The discrimination index was calculated from the searching time for novel object and known object in the second trial run, and the improvement of cognitive function of the test compound was confirmed by comparing the discrimination index with the test compound-unadministered group as an index of the cognitive function. The discrimination index was calculated by the following formula.
# Discrimination index={(Searching time for novel object)−(Searching time for known object)}/{(Searching time for novel object)+(Searching time for known object)}
# The present test can be also done with a combination with Elacridar (Tokyo Chemical Industry Co., Ltd.). Elacridar can inhibit P-gp and BCRP which are excretion transporters expressed in the blood-brain barrier and thereby Elacridar has the effect of improving the transferability of the test compound to the brain. Eracridal was orally administered to APP-Tg mice at 100 mg/kg 2 hours before the first trial run, and then the test compound was intraperitoneally administered to the mice 30 minutes before the first trial run according to the above method. And, the improvement of cognitive function was evaluated. The significant difference from the vehicle-administered group was determined using the parametric Dunnett multiple comparison test.
# And, the present test can be also done with a combination with ABT (1-aminobenzotriazole) (Tokyo Chemical Industry Co., Ltd.). ABT has the effect of improving the blood concentration of the test compound by inhibiting CYP and suppressing metabolism. The test compound and ABT (1 mg/g-food) were administered with food to APP-Tg mice for 10 days, and then the improvement of cognitive function was evaluated according to the above method. The significant difference from the vehicle-administered group was determined using the parametric Dunnett multiple comparison test.
# [3] = mixed diet 4.5 mg/g-food with ABT 1 mg/g-food
compound,measurement,setting,value
"N#Cc1ccc(NC(=O)Cn2nc(N3CCC4(CC4)C(F)(F)C3)ccc2=O)cn1 [Example 560, N-(6-cyanopyridin-3-yl)-2-[3-(4,4-difluoro-6-azaspiro[2.5]octan-6-yl)-6-oxopyridazin-1(6H)-yl]acetamide]",SUVR(cerebellum ratio) cerebral neocortex,[1]; 4 month old,1.026 ± 0.037
same,SUVR(cerebellum ratio) hippocampus,[1]; 4 month old,1.103 ± 0.036
same,SUVR(cerebellum ratio) cerebral neocortex,[1]; 6 month old,1.224 ± 0.060
same,SUVR(cerebellum ratio) hippocampus,[1]; 6 month old,1.328 ± 0.078
same,SUVR(cerebellum ratio) cerebral neocortex,[1]; 8 month old,1.351 ± 0.049
same,SUVR(cerebellum ratio) hippocampus,[1]; 8 month old,1.468 ± 0.056
same,age-dependent increase in SUVR in the cerebral neocortex and hippocampus (FIG. 7),[1]; [3],tended to be suppressed
same,"increase in PET tracer accumulation in each brain region with aging (average SUVR images, FIG. 6)","[1]; mixed diet 4.5 mg/g-food with ABT 1 mg/g-food, ages 4, 6 and 8 months",suppressed
same,Reducing effect of phosphorylated tau oligomer,[2]; dose 0.5 mg/g-food,++ (25-50%: ++)
same,Reducing effect of phosphorylated tau oligomer,[2]; dose 4.5 mg/g-food,++++ (75-100%: ++++)
same,reducing effect of tau oligomer,[2],some reducing effect of tau oligomer; also recorded: strong reducing effect of tau oligomer
same,lateral ventricular volume (mm^3),rTg4510 mice; 4 month old,0.47 ± 0.06 mm^3
same,lateral ventricular volume (mm^3),rTg4510 mice; 6 month old,0.34 ± 0.10 mm^3
same,lateral ventricular volume (mm^3),rTg4510 mice; 8 month old,0.71 ± 0.35 mm^3
same,age-dependent increase in lateral ventricular volume,rTg4510 mice; [3],suppressed
"N#Cc1ccc(NC(=O)Cn2ncc3ncc(N4CCC5(CC5)C(F)(F)C4)nc32)cn1 [Example 746, N-(6-cyanopyridin-3-yl)-2-[6-(4,4-difluoro-6-azaspiro[2.5]octan-6-yl)-1H-pyrazolo[3,4-b]pyrazin-1-yl]acetamide]",Reducing effect of phosphorylated tau oligomer,[2]; dose 0.2 mg/g-food,++ (25-50%: ++)
same,Reducing effect of phosphorylated tau oligomer,[2]; dose 2 mg/g-food,++ (25-50%: ++)
same,reducing effect of tau oligomer,[2],some reducing effect of tau oligomer
same,activation at 1 µM,"human Nav1.1; HEK293, Concentration for evaluation 1 μM, HEK293 cell line stably expressing human Nav1.1",102%
same,"improvement of cognitive function (NORT), summary of the above results",APP-Tg mouse,some improvement of cognitive function
same,improvement of cognitive function (NORT),APP-Tg mouse,some improvement of cognitive function
same,Discrimination index,APP-Tg mouse; dose 0.2 mg/g-food for 10 days,0.28
same,Discrimination index,APP-Tg mouse; dose 2 mg/g-food for 10 days,0.38
"CN(CC1CCC1)c1ncc2cnn(CC(=O)Nc3ccc4ncnn4c3)c2n1 [Example 819, 2-{6-[(cyclobutylmethyl)(methyl)amino]-1H-pyrazolo[3,4-d]pyrimidin-1-yl}-N-([1,2,4]triazolo[1,5-a]pyridin-6-yl)acetamide]",Reducing effect of phosphorylated tau oligomer,[2]; dose 0.2 mg/g-food,++ (25-50%: ++)
same,Reducing effect of phosphorylated tau oligomer,[2]; dose 2 mg/g-food,+ (0-25%: +)
same,reducing effect of tau oligomer,[2],some reducing effect of tau oligomer
same,activation at 1 µM,"human Nav1.1; HEK293, concentration for evaluation 1 μM, HEK293 stably expressing human Nav1.1",88%
same,"improvement of cognitive function (NORT), summary of the above results",APP-Tg mouse,some improvement of cognitive function
same,improvement of cognitive function (NORT),APP-Tg mouse,some improvement of cognitive function; also recorded: strong improvement of cognitive function
same,Discrimination index,APP-Tg mouse; dose 0.2 mg/g-food for 10 days,0.47
same,Discrimination index,APP-Tg mouse; dose 2 mg/g-food for 10 days,0.52

# Reference: US20230109839A1, “THERAPEUTIC AGENT FOR TAUOPATHIES” (SUMITOMO PHARMA CO., LTD., priority 2020, published 2023)
